Data as given in patent US11873298B2, “Compounds and uses thereof” (JANSSEN PHARMACEUTICA NV, priority 2017, dated 2024).
Values joined by “and” are separate entries in the source; they are usually repeats but may differ in a detail not shown here. Equal entries are not always repeated.

What was measured:
Assay type in all cases: cell-based
Ole1 = molecular target: T1, Ole1 (Saccharomyces cerevisiae, UniProt P21147); test: Growth inhibition of yeast strain expressing Ole1 as sole desaturase; conditions: yeast strain expressing Ole1 as sole desaturase
T1 construct: expressed in transfected cells; host or cells: S. cerevisiae ole1Δ strain (W303 pdr1Δ pdr3Δ background), plasmid pRS316 with TDH3 promoter and CYC1 terminator
T1 sequence (P21147 1-510): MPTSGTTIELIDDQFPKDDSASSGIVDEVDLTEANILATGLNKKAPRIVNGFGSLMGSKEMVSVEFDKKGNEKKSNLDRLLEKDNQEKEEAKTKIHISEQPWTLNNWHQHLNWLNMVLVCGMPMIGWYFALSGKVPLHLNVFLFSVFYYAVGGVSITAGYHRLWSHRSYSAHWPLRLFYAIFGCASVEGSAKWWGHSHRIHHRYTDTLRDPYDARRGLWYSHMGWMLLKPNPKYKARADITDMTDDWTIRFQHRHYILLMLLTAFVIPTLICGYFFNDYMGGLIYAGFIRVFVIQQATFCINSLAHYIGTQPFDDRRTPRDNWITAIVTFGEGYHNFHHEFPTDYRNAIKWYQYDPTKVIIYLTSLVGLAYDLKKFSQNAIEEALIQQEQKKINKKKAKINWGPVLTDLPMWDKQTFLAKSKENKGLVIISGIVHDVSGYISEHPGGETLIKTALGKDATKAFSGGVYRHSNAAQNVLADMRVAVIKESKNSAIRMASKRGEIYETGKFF
In short: (§1)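 OD600 growth read-out. ole1Δ yeast, pdr1Δ pdr3Δ, with Ole1/SCD1/SCD5 on a plasmid; SX-Ura media throughout; 2× cell density 0.02 in CSM-Galactose; DMSO compound dilutions; humidified 30° C.; Ole1 stopped at 24 h, SCD1/SCD5 at 40 h.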

SCD1 = molecular target: T2, SCD1 (Homo sapiens, UniProt O00767); test: Growth inhibition of humanized yeast strain expressing SCD1 as sole desaturase; conditions: humanized yeast strain expressing SCD1
T2 construct: host or cells: S. cerevisiae ole1Δ strain (W303 pdr1Δ pdr3Δ background), plasmid pRS316 with TDH3 promoter and CYC1 terminator
T2 sequence (O00767 1-359): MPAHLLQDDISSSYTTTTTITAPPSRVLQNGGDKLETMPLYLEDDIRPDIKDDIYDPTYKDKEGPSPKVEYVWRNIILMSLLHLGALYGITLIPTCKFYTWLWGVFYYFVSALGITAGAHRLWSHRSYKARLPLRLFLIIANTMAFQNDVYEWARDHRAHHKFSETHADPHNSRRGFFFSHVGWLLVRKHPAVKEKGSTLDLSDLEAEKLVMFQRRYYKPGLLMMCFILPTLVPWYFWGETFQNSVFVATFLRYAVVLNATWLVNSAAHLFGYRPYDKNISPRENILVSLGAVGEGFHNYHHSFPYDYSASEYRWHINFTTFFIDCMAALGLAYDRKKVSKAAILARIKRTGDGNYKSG
In short: as §1

SCD5 = molecular target: T3, SCD5 (Homo sapiens, UniProt Q86SK9); test: Growth inhibition of humanized yeast strain expressing SCD5 as sole desaturase; conditions: humanized yeast strain expressing SCD5
T3 construct: host or cells: S. cerevisiae ole1Δ strain (W303 pdr1Δ pdr3Δ background), plasmid pRS316 with TDH3 promoter and CYC1 terminator
T3 sequence (Q86SK9 1-330): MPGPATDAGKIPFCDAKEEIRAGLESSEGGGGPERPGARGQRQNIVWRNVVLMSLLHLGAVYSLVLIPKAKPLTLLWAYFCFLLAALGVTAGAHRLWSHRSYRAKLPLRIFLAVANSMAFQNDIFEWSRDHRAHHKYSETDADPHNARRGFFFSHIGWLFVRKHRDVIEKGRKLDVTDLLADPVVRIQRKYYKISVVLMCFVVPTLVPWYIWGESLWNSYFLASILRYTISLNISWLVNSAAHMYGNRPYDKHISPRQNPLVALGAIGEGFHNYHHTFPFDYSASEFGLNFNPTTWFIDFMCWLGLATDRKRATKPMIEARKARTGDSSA
In short: as §1

SMILES	IC50 (Ole1)	OLE1 % Max Inhibition (Ole1)	SCD1 % Max Inhibition (SCD1)	IC50 (SCD5)	SCD5 % Max Inhibition (SCD5)	IC50 (SCD1)
Cc1c2ccc(-c3noc(C4CCN(C(=O)CNC(=O)c5ccccc5)CC4)n3)cc2nn1C(C)C [Compound 289]	> 45 µM	45.87%	62.01%	> 45 µM	77.71%	–
Cc1nn(C)c2cc(-c3noc(C4CCN(C(=O)c5ccc(C(C)C)cc5)CC4)n3)ccc12 [Compound 290]	> 45 µM	20.6%	3.3%	> 45 µM	8.8%	–
Cc1nn(C)c2cc(-c3noc(C4CCN(C(=O)c5ccc(Cl)cc5)CC4)n3)ccc12 [Compound 291]	> 45 µM	–	5.0% and 0.30%	> 45 µM	8.5% and 3.29%	–
Cc1nn(C)c2cc(-c3noc(C4CCN(C(=O)c5cc(F)ccc5C(F)(F)F)CC4)n3)ccc12 [Compound 292]	> 45 µM	13.6%	9.5%	> 45 µM	10.2%	–
Cc1nn(C)c2cc(-c3noc(N4CCN(C(=O)c5cc(F)ccc5C(F)(F)F)CC4)n3)ccc12 [Compound 293]	34.9 µM	66.4%	12.3%	> 45 µM	11.9%	> 45 µM
Cc1nn(C)c2cc(-c3noc(N4CCN(C(=O)c5ccccc5C(F)(F)F)CC4)n3)ccc12 [Compound 295]	> 45 µM	18.4%	14.4%	> 45 µM	9.2%	–
COc1ccc(-c2noc(C3CCN(C(=O)C4CC(=O)N(c5cccc(C#N)c5)C4)CC3)n2)cc1OC(C)C (centres unmarked) [Compound 296]	> 45 µM	99.1%	86.6%	> 45 µM	22.6%	> 45 µM
Cc1nn(C)c2ccc(-c3noc(C4CCN(C(=O)c5ccc(C(C)C)cc5)CC4)n3)cc12 [Compound 297]	25.2 µM	42.0%	5.7%	> 45 µM	9.2%	–
CCN1C(=O)CC(C)c2ccc(-c3noc(C4CCN(C(=O)CNC(=O)c5ccccc5)CC4)n3)cc21 (centres unmarked) [Compound 298]	> 45 µM	6.6%	92.3%	> 45 µM	21.3%	> 45 µM
CCn1nc(C)c2ccc(-c3noc(C4CCN(C(=O)CNC(=O)c5ccccc5)CC4)n3)cc21 [Compound 299]	> 45 µM	17.5% and 13.58%	89.6% and 62.80%	> 45 µM	30.1% and 22.61%	≥ 45 µM
Cc1nn(C)c2cc(-c3nsc(C4CCN(C(=O)OC(C)(C)C)CC4)n3)ccc12 [Compound 300]	> 45 µM	79.7%	78.1%	> 45 µM	36.0%	–
CCn1nc(C)c2ccc(-c3noc(C4CCN(C(=O)OC(C)(C)C)CC4)n3)cc21 [Compound 301]	> 45 µM	99.4%	96.2%	> 45 µM	21.0%	–
Cc1ccc(N2C[C@@H](C(=O)N3CCC(c4nc(-c5ccc6c(C)nn(C)c6c5)no4)CC3)CC2=O)nc1 [Compound 302]	> 45 µM	6.7% and 5.26%	71.1% and 50.17%	> 45 µM	9.4% and 10.64%	36.1 µM and ≥ 45 µM
Cc1ccc(N2C[C@H](C(=O)N3CCC(c4nc(-c5ccc6c(C)nn(C)c6c5)no4)CC3)CC2=O)nc1 [Compound 303]	> 45 µM	14.2% and 8.50%	94.3% and 65%	> 45 µM	15.6% and 20.68%	≥ 45 µM
Cc1nn(C)c2cc(-c3noc(C4CCN(C(=O)CNC(=O)c5cc(F)ccc5C(F)(F)F)CC4)n3)ccc12 [Compound 304]	> 45 µM	14.7%	74.9%	> 45 µM	51.6%	–
Cc1nn(C)c2cc(-c3noc(C4CCN(C(=O)[C@H]5CC(=O)N(c6cccc(C#N)c6)C5)CC4)n3)ccc12 [Compound 305]	> 45 µM	6.6% and 4.23%	73.2% and 55.27%	> 45 µM	–	≥ 45 µM
Cc1nn(C)c2cc(-c3noc(C4CCN(C(=O)[C@@H]5CC(=O)N(c6cccc(C#N)c6)C5)CC4)n3)ccc12 [Compound 306]	> 45 µM	33.2% and 36.88%	67.6% and 63.32%	> 45 µM	–	≥ 45 µM
Cc1nn(C)c2cc(-c3noc(C4CCN(C(=O)[C@H]5CC(=O)N(c6ccc(C#N)cc6)C5)CC4)n3)ccc12 [Compound 307]	> 45 µM	7.8% and 4.08%	78.2% and 70.58%	> 45 µM	52.5% and 27.45%	≥ 45 µM
Cc1nn(C)c2cc(-c3noc(C4CCN(C(=O)[C@@H]5CC(=O)N(c6ccc(C#N)cc6)C5)CC4)n3)ccc12 [Compound 308]	> 45 µM and 27.2 µM	63.7% and 49.30%	81.6% and 61.05%	> 45 µM	15.5% and 6.81%	≥ 45 µM
CCc1nn(C)c2cc(-c3noc(C4CCN(C(=O)CNC(=O)c5ccccc5)CC4)n3)ccc12 [Compound 309]	> 45 µM	8.0%	80.6%	> 45 µM	14.7%	–
CCN1C(=O)CN(C)c2cc(-c3noc(C4CCN(C(=O)CNC(=O)c5ccccc5)CC4)n3)ccc21 [Compound 310]	> 45 µM	7.1%	71.2%	> 45 µM	66.6%	–
Cc1nn(C)c2cc(-c3noc(C4CCN(C(=O)N5CCOCC5)CC4)n3)ccc12 [Compound 311]	> 45 µM	90.8%	72.9%	> 45 µM	60.5%	–
O=C([C@H]1CC(=O)N(c2ccccc2)C1)N1CCC(c2nc(N3CC4(COC4)C3)no2)CC1 [Compound 316]	≥ 45 µM	89.26%	69.01%	–	80%	≥ 45 µM
Cc1nn(C)c2cc(-c3noc(C4CCN(C(=O)CNC(=O)c5ccc(C(F)(F)F)cc5)CC4)n3)ccc12 [Compound 317]	> 45 µM	8.3%	30.0%	> 45 µM	20.6%	–
Cc1c2cc(-c3noc(C4CCN(C(=O)c5ccc(C(C)C)cc5)CC4)n3)ccc2nn1C [Compound 318]	> 45 µM	89.1%	77.6%	> 45 µM	33.7%	> 45 µM
Cc1nn(C)c2cc(-c3nc(C4CCN(C(=O)OC(C)(C)C)CC4)no3)ccc12 [Compound 319]	> 45 µM	74.25% and 63.83% and 86.3% and 84.75%	97.10% and 89.16% and 81.7% and 75.42%	> 45 µM	–	≥ 45 µM
CCn1nc2cc(-c3noc(C4CCN(C(=O)CNC(=O)c5ccccc5)CC4)n3)ccc2c1C [Compound 320]	> 45 µM	28.5%	74.7%	> 45 µM	76.0%	–
